Source: patent EP4778929A1, “NOVEL TYPE I TOPOISOMERASE INHIBITOR, AND PREPARATION METHOD THEREFOR AND USE THEREOF” (priority 2023, dated 2025)
Several values for one entry are separate records, joined by “and”; a condition that tells them apart may be missing. Equal entries are not always repeated. Where two headings read alike, the source gives them in different places.

Experiments:
[1] = molecular target: T1, topoisomerase I (Topo I) (Homo sapiens, UniProt P11387); experiment: Topo I enzyme-inhibitory activity by agarose-gel electrophoresis (plasmid relaxation); format: biochemical
T1 sequence (P11387 1-765): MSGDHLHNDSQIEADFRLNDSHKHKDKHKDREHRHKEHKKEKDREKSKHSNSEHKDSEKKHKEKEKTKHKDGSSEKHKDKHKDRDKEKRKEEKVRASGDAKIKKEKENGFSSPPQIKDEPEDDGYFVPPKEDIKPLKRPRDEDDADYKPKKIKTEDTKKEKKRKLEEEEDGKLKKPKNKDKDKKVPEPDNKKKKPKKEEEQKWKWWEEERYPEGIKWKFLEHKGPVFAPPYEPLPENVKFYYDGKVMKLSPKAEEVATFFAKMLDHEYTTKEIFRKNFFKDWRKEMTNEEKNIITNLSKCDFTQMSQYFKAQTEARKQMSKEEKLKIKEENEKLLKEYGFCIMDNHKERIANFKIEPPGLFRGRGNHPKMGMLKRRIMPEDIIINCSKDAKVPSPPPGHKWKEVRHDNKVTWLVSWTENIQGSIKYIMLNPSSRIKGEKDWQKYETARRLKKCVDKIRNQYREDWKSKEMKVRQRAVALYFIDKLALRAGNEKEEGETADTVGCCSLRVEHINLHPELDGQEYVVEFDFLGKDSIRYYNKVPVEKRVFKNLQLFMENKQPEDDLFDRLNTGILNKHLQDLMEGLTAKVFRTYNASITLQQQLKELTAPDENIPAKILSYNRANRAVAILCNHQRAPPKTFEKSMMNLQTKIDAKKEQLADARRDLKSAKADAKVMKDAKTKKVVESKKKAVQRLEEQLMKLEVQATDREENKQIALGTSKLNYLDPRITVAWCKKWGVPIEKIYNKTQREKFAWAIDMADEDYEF
Source text: Test Example 1. Determination of Topo I Enzyme-Inhibitory Activity by Agarose-Gel Electrophoresis
Principle: Type-I topoisomerase (Topo I) relaxes positive and negative supercoils by introducing transient single-strand breaks and forming reversible cleavage complexes (Topo I-DNA covalent complexes). Gel electrophoresis can resolve DNA species of identical molecular weight but different topology: supercoiled plasmid migrates fastest, whereas the nicked, relaxed form moves more slowly. Quantifying the decrease in supercoiled DNA therefore provides a direct measure of Topo I activity.
Experimental Procedure: A 1× reaction buffer was prepared (20 mM Tris-HCl pH 7.5, 200 mM NaCl, 0.25 mM EDTA, 5 % (v/v) glycerol, 0.5 µg pNO1 plasmid substrate). Test compounds (5 % DMSO final) were added to the buffer, followed by Topo I enzyme (0.75 U per reaction). After gentle mixing, reactions were incubated at 37 °C for 30 min. Positive (enzyme + vehicle) and negative (no enzyme) controls were included in parallel. Reactions were terminated by adding STEB buffer and chloroform/iso-amyl alcohol (24:1, v/v), vortexed and centrifuged for 2 min. The aqueous (upper) phase was loaded onto a 1 % (w/v) agarose gel, electrophoresed for 1-2 h, stained with GelRed, and imaged under UV trans-illumination.
Data Analysis: Band intensities of supercoiled DNA were quantified with image-analysis software. Relaxation activity (%) was calculated as (Max-Sample)/ (Max-Min)*100%, where Max = intensity of the no-enzyme negative control, Min = intensity of the vehicle-only positive control, and Sample = intensity of the compound-treated lane. Dose-response data (compound concentration, X; relaxation activity %, Y) were fitted in Excel or GraphPad Prism 5.0 using the four-parameter logistic equation: Y=Bottom + (Top-Bottom)/(1+(IC50/X)[…]) to derive the IC50 value for each compound.
Table 1. Compound-mediated inhibition of topoisomerase I (Topo I) enzymatic activity

[2] = test system: HCT116 cells; experiment: Inhibition of cell proliferation by CTG (CellTiter-Glo) luminescence assay; format: cell-based; settings: Homo sapiens, read-out: HCT116, IC50
Procedure, shortened: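 Nine-point 1:3 dilutions applied to HCT116 cells (2 000/well, McCoy's 5a + 10 % FBS) for 72 h at 37 °C, final DMSO 0.25 %. Viability read by CellTiter-Glo luminescence; % inhibition versus DMSO controls fitted to four-parameter logistic for IC50.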

[3] = read-out: inhibition of topoisomerase I (Topo I) enzymatic activity, IC50; 0.75 U Topo I, pNO1 plasmid, 37 °C, 30 min; compounds listed by group (Group A / Group B)
[4] = 0.75 U Topo I, pNO1 plasmid, 37 °C, 30 min; compounds listed by group (Group A / Group B); read-out: inhibition of topoisomerase I (Topo I) enzymatic activity, IC50
[5] = HCT-116, 72 h incubation, CellTiter-Glo

| Compound | IC50 [1, 3] | IC50 ([2]; HCT-116, 72 h) [nM] | IC50 [1, 4] [nM] | IC50 [2, 5] [nM] |
| --- | --- | --- | --- | --- |
| CC[C@@]1(O)C(=O)OCc2c1cc1n(c2=O)Cc2c-1c(=O)c1cc(F)c(C)cc1n2CCN(C1CC1)C1CC(F)(F)C1 [Example 165] | 200 to 500 nM | < 20 |  |  |
| CC[C@@]1(O)C(=O)OCc2c1cc1n(c2=O)Cc2c-1c(=O)c1cc(F)ccc1n2CCN(C1CC1)C1CC1 [Example 140] | < 200 nM | < 20 |  |  |
| CC[C@@]1(O)C(=O)OCc2c1cc1n(c2=O)Cc2c-1c(=O)c1cc(F)ccc1n2-c1cccnc1 [Example 60, (S)-4-ethyl-8-fluoro-4-hydroxy-11-(pyridin-3-yl)-1H-pyrano[3',4':6,7]indolizino[2,1-b]quinoline-3,6,14(4H,11H,12H)-trione] |  |  | 200 to 500 | < 20 |
| CC[C@@]1(O)C(=O)OCc2c1cc1n(c2=O)Cc2c-1c(=O)c1cc(F)c(C)cc1n2CCN(C)C1CC1 [Example 164] | 200 to 500 nM | < 20 |  |  |
| CC[C@@]1(O)C(=O)OCc2c1cc1n(c2=O)Cc2c-1c(=O)c1cc(F)cc(C)c1n2CCN(C1CCCC1)C1CC1 [Example 171] | 200 to 500 nM | < 20 |  |  |
| CC[C@@]1(O)C(=O)OCc2c1cc1n(c2=O)Cc2c-1c(=O)c1cc(F)c(F)cc1n2C [Example 5, (S)-4-ethyl-8,9-difluoro-4-hydroxy-11-methyl-1,12-dihydro-14H-pyrano[3',4':6,7]indolizino[2,1-b]quinoline-3,6,14(4H,11H)-trione] |  |  | < 200 | < 20 |
| CC[C@@]1(O)C(=O)OCc2c1cc1n(c2=O)Cc2c-1c(=O)c1cc(F)ccc1n2C1CC1 [Example 37, (S)-4-ethyl-8-fluoro-4-hydroxy-11-cyclopropyl-1,12-dihydro-14H-pyrano[3',4':6,7]indolizino[2,1-b]quinoline-3,6,14(4H,11H)-trione] | < 200 nM | < 20 |  |  |
| CC[C@@]1(O)C(=O)OCc2c1cc1n(c2=O)Cc2c-1c(=O)c1cc(F)c(CNC3CC3)cc1n2C1CCCC1 [Example 227] | 200 to 500 nM | < 20 |  |  |
| CC[C@@]1(O)C(=O)OCc2c1cc1n(c2=O)Cc2c-1c(=O)c1cc(F)c(C)cc1n2CCNC1CC1 [Example 161] | 200 to 500 nM | < 20 |  |  |
| CC[C@@]1(O)C(=O)OCc2c1cc1n(c2=O)Cc2c-1c(=O)c1cc(F)c(C)cc1n2CCNC1CC(F)(F)C1 [Example 160] |  |  | 200 to 500 | < 20 |
| CC[C@@]1(O)C(=O)OCc2c1cc1n(c2=O)Cc2c-1c(=O)c1cc(F)cc(C)c1n2CCNC1CCCC1 [Example 168] | 200 to 500 nM | < 20 |  |  |
| CC[C@@]1(O)C(=O)OCc2c1cc1n(c2=O)Cc2c-1c(=O)c1cc(F)ccc1n2CCN1CC(F)(F)C1 [Example 186] |  |  | 200 to 500 | < 20 |
| CC[C@@]1(O)C(=O)OCc2c1cc1n(c2=O)Cc2c-1c(=O)c1cc(F)ccc1n2CCNC1CCCC1(C)C (stereo partly shown) [Example 138] | 200 to 500 nM | < 20 |  |  |
| CCOCCc1cc(F)cc2c(=O)c3c(n(C)c12)Cn1c-3cc2c(c1=O)COC(=O)[C@]2(O)CC [Example 23, (S)-10-(2-ethoxyethyl)-4-ethyl-8-fluoro-4-hydroxy-11-methyl-1,12-dihydro-14H-pyrano[3,4:6,7]indolizino[2,1-b]quinoline-3,6,14 (4H,11H)-trione] | 200 to 500 nM | < 20 |  |  |
| CC[C@@]1(O)C(=O)OCc2c1cc1n(c2=O)Cc2c-1c(=O)c1cc(F)ccc1n2CCN1CC2(CC2)C1 [Example 182, (S)-11-(2-(5-azaspiro[2.3]hexan-5-yl)ethyl)-4-ethyl-8-fluoro-4-hydroxy-1,12-dihydro-14H-pyrano[3',4':6,7]indolizino[2,1-b]quinoline-3,6,14(4H,11H)-trione] |  |  | 200 to 500 | < 20 |
| CC[C@@]1(O)C(=O)OCc2c1cc1n(c2=O)Cc2c-1c(=O)c1ccccc1n2C [Example 1, (S)-4-ethyl-4-hydroxy-11-methyl-1,12-dihydro-14H-pyrano[3,4:6,7]indolizino[2,1 - b]quinoline-3,6,14(4H,11H)-trione] |  |  | < 200 | < 20 |
| CC[C@@]1(O)C(=O)OCc2c1cc1n(c2=O)Cc2c-1c(=O)c1cc(F)ccc1n2CCN(C1CCC1)C1CC1 [Example 141] | 200 to 500 nM | < 20 |  |  |
| CC[C@@]1(O)C(=O)OCc2c1cc1n(c2=O)Cc2c-1c(=O)c1cc(F)ccc1n2CCN(C1CC1)C1CC(F)(F)C1 [Example 101, (S)-11-(2-(cyclopropyl(3,3-difluorocyclobutyl)amino)ethyl)-4-ethyl-8-fluoro-4-hydroxy-1,12-dihydro-14H-pyrano[3,4:6,7] indolizino[2,1-b]quinoline-3,6,14(4H,11H)-trione] | 200 to 500 nM and < 200 nM | < 20 |  |  |
| CC[C@@]1(O)C(=O)OCc2c1cc1n(c2=O)Cc2c-1c(=O)c1cc(F)c(CN(C)C3CC3)cc1n2C1CCCC1 [Example 228] |  |  | 200 to 500 | < 20 |
| CC[C@@]1(O)C(=O)OCc2c1cc1n(c2=O)Cc2c-1c(=O)c1cc(F)cc(CNC3CC3)c1n2C [Example 88, (S)-10-((cyclopropylamino)methyl)-4-ethyl-8-fluoro-4-hydroxy-11-methyl-1,12-dihydro-14H-pyrano[3,4:6,7]indolizino[2,1-b] quinoline-3,6,14(4H,11H)-trione] | 200 to 500 nM | < 20 |  |  |
| CC[C@@]1(O)C(=O)OCc2c1cc1n(c2=O)Cc2c-1c(=O)c1cc(F)c(N)cc1n2C1CCC(C)(C)CC1 [Example 70, (S)-9-amino-4-ethyl-8-fluoro-4-hydroxy-11-(4,4-dimethylcyclohexyl)-1,12-dihydro-14H-pyrano[3,4:6,7]indolizino[2,1-b] quinoline-3,6,14(4H,11H)-trione] | 200 to 500 nM | < 20 |  |  |
| CC[C@@]1(O)C(=O)OCc2c1cc1n(c2=O)Cc2c-1c(=O)c1cc(F)ccc1n2-c1cn(C2CC2)nc1C(C)O (stereo partly drawn) [Example 63, (4S)-11-(1-cyclopropyl-3-(1-hydroxyethyl)-1H-pyrazol-4-yl)-4-ethyl-8-fluoro-4-hydroxy-1,12-dihydro-14H-pyrano[3,4:6,7] indolizino[2,1-b]quinoline-3,6,14(4H,11H)-trione] | 200 to 500 nM | < 20 |  |  |
| CC[C@@]1(O)C(=O)OCc2c1cc1n(c2=O)Cc2c-1c(=O)c1cc(F)ccc1n2-c1cnn(C)c1 [Example 57, (S)-4-ethyl-8-fluoro-4-hydroxy-11-(1-methyl-1H-pyrazol-4-yl)-1H-pyrano[3',4':6,7]indolizino[2,1-b]quinoline-3,6,14(4H,11H,12H) -trione] |  |  | 200 to 500 | < 20 |
| CC[C@@]1(O)C(=O)OCc2c1cc1n(c2=O)Cc2c-1c(=O)c1cc(F)ccc1n2CCNC1CCC1 [Example 106] | 200 to 500 nM | < 20 |  |  |
| CC[C@@]1(O)C(=O)OCc2c1cc1n(c2=O)Cc2c-1c(=O)c1cc(F)c(C)cc1n2CCNC1CCCC1 [Example 163] | 200 to 500 nM | < 20 |  |  |
| CC[C@@]1(O)C(=O)OCc2c1cc1n(c2=O)Cc2c-1c(=O)c1cc(F)c(N)cc1n2-c1ccc2c(c1)OC(F)(F)O2 [Example 354] | < 200 nM | < 20 |  |  |
